Assay results reported in patent US8980948B2, “Topical application of travoprost for combating hair loss” (Galderma Research & Development, priority 2007, dated 2015).

Experiments:
[1] = test system: C57BL/6 mouse; experiment: Model of regrowth of the body hair in the C57BL/6 mouse; type: in vivo; conditions: for Regrowth of the body hair versus ethanol ΔAUC (D 1-D 22): topical 50 μl
Excerpt: The C57BU6 mice are each a particularly useful model for the study of hair growth:
In C57BU6 mice, the fur is black. In the trunk of the animals, the melanocytes are present solely in the hair follicles and the production of pigment is strictly correlated with the anagen phase of the hair cycle (Slominski A. and Paus R., J. Invest. Dermatol., 10, 90S-97S, 1993).
In young mice, the hair cycles are not in phase throughout the body but are synchronized in a region according to a rostro-caudal wave (Hale P. A. and Ebling F. J., J. Exp. Zool., 191, 49-62). At 42 days, the hair follicles of the dorsal region enter the telogen phase (Chase H. B. Physiol. Rev., 34, 113-126, 195).
Thus, after clipping and shaving the backs of C57BU6 mice aged 42 days, the regrowth can be easily visualized before the hair shafts appear at the surface by the grey appearance which the skin assumes. The delay in appearance of the grey color of the skin and the delay in appearance of the hair shafts after clipping and shaving represent criteria which give an account of the rate of entry of the hair follicle into the anagen phase and the rate of growth of the hair shaft. These two criteria will thus be used to evaluate the activity on the hair growth of the compounds tested.
The male C57BU6 mice are aged 42 days at the beginning of the study. The groups are formed of 10 animals.
On day D0, the backs of the animals are clipped with Minicut clippers equipped with a shoe (retention of 4 mm of hair shaft) and shaved with a Braun razor.
The study is carried out over 21 days.
The hair growth is evaluated according to the criteria defined in:
Minoxidil in solution in ethanol at 2.5% is used as positive control of the regrowth of the body hair.
Travoprost in its isopropyl ester form is used in solution in ethanol at 0.01%.
The travoprost, the minoxidil and the carrier are administered by the topical route using a pipette at the rate of 50 μl per application.
The minoxidil and the carrier are administered in repeated daily fashion from day 1 to day 21 of the study. Two different treatments are carried out with the travoprost: a first group receiving a single administration on day 1 of the study and a second group receiving five repeated daily and consecutive administrations from day 1 to day 5 of the study.
The following calculations are carried out: • Mean±SEM of the scores per day for each group treated. • Areas under the curve (AUC) of the regrowth scores per animal from D1 to D22. • Mean±SEM of the AUC values per treatment group. • Percentage of increase in the AUC values for each treated group versus the carrier group.
The AUC is obtained by summing the areas of the rectangles from the first and the final day of the study. The different treatment groups are compared with the carrier group with regard to this parameter by means of a Student's t-test.

[2] = test system: human hair follicles; experiment: Human hair follicles kept alive: elongation of the hair shaft in organ culture; type: cell-based; conditions: 1 μM in DMSO; for Elongation at D 7: cumulative from D0, mean
Method: Human hair follicles are dissected while keeping the bulb and the connective and epithelial sheaths intact to be cultured in an appropriate medium which makes it possible to provide for the growth of the follicle ex vivo while keeping its structure intact in the growth or anagen phase (Stenn, Ann. N.Y. Acad. Sci., 1991, Dec. 26, 642, xi-xiii). The growth of the hair follicles in vitro is then evaluated using the measurement of elongation of the […].
Human hair follicles of “terminal” type are isolated from a skin sample resulting from facial surgery (lifting). For this, the skin is cut into pieces of approximately 5×5 mm. The hypodermis is separated from the dermis using a scalpel blade. The hair follicles are isolated from the hypodermal part under a binocular magnifier using fine forceps. Only the hair follicles in the growth phase with a bulb and intact connective and epithelial sheaths are retained for study.
The hair follicles thus isolated are incubated at 37° C. in a humid atmosphere (5% CO2 and 95% air) and are cultured individually in suspension for 7 days in William's E medium supplemented with 2 mM of L-glutamine, 10 μg/ml of insulin, 10 ng/ml of hydrocortisone and 1% of antibiotics/antimitotics. The culture medium is replaced every 2 or 3 days.
The travoprost in its acid form is taken up in DMSO at a concentration of 10^−2M and stored at −20° C. until used.
The surviving hair follicles are treated with the DMSO carrier at a final concentration of 0.1% or with the travoprost acid at a concentration of 1 μM in DMSO (final DMSO concentration also at 0.1%). For each condition, 22 hair follicles are treated individually subsequent to culturing at D0. In the case of a repeated treatment, the travoprost acid at 1 μM in DMSO is replaced at the time of the change in medium, this being done for 7 days. In the case of a single treatment, the travoprost acid at 1 μM DMSO is added to the culture medium just once in the culturing.
The growth of the hair follicles is determined by the measurement of the elongation of the hair shaft from day D0 to day D7. The elongation of the hair shaft is analyzed using Tina image analysis software. The measurements are carried out on hair follicles isolated at days D0, D3, D5 and D7.
The mean post-D0 length (by definition: the mean of the lengths measured on the days following D0) is considered:
The mean post-D0 length is a function: • of the initial length at D0 • of the treatment group • of other factors related to technological or biological variability.
In this study example, 15 hair follicles (all groups mixed up) out of 66 cultured were discarded.
It is assumed that the mean post-D0 length is the sum of four components:
Some measurements, referred to as “aberrant” measurements, can have a highly disruptive effect on the estimation of the effects of the model. A robust ANOVA method is applied with regard to these measurements: “LTS” (Least Trimmed Squares). The principle of the LTS method is as follows: • 1. A definition is made at the start of a fixed proportion p0 of observations which it is desired to ignore in the estimation of the effects (p0=10%) among all the observations present independently of the treatment (observations of the entire study). The corresponding number of observations is denoted n0. • 2. n0 points are selected at random and excluded from the estimation process. • 3. The parameters (effects) of the model are estimated. • 4. Among the observations, excluded and non-excluded, the n0 observations which are the least well predicted by the model are identified. • 5. The n0 least well predicted observations found in stage 4, are, in their turn, excluded from the estimation process. • 6. Stage 3 (estimation) is reverted to until the observations excluded in stage 5 remain unchanged (“convergence”).
The LTS process is repeated a large number of times (200) starting from different random selections. […]

[3] = single treatment at the time of culturing

## Nc1cc(N2CCCCC2)nc(N)[n+]1[O-] [Minoxidil, 2,4-diamino-6-piperidinopyrimidine 3-oxide]
[1]; 2.5% in ethanol, repeated daily administrations (21 days)
  Regrowth of the body hair versus ethanol ΔAUC (D 1-D 22): +34%
[1]; 2.5% in ethanol, repeated daily administrations (21 days), listed as minoxidil
  Regrowth of the body hair versus ethanol ΔAUC (D 1-D 22): 30%
[1]; 2.5%, repeated daily administration for 21 days
  regrowth of the body hair in comparison with the carrier: accelerates the regrowth of the body hair

## CC(C)OC(=O)CCC/C=C\C[C@@H]1[C@@H](/C=C/[C@@H](O)COc2cccc(C(F)(F)F)c2)[C@H](O)C[C@@H]1O [Travoprost, propane-2-yl (Z)-7-[(1R,2R,3R,5S)-3,5-dihydroxy-2-[(1E,3R)-3-hydroxy-4-[3-(trifluoromethyl)phenoxy]but-1-enyl]cyclopentyl]hept-5-enoate]
[1]; 0.01% in ethanol, repeated daily administrations (5 days)
  Regrowth of the body hair versus ethanol ΔAUC (D 1-D 22): +7%
[1]; 0.01% in ethanol, single administration on day 1
  Regrowth of the body hair versus ethanol ΔAUC (D 1-D 22): +31%
[1]; 0.01% in ethanol, single administration on day 1, listed as travoprost
  Regrowth of the body hair versus ethanol ΔAUC (D 1-D 22): 31%
[1]; 0.01%, repeated daily and consecutive administrations for 5 days
  regrowth of the body hair in comparison with the carrier: do not accelerate the regrowth of the body hairs
[1]; 0.01%, single administration
  regrowth of the body hair in comparison with the carrier: significantly accelerates the regrowth of the body hair
[2]; repeated treatment during 7 days
  AUC (D 0-D 7) of hair shaft elongation: 5.82
[2]; repeated treatment during 7 days of culturing
  Elongation at D 7: 1.23 mm
[2]; [3]
  AUC (D 0-D 7) of hair shaft elongation: 5.83
  Elongation at D 7: 1.27 mm

## O=C(O)CCC/C=C\C[C@@H]1[C@@H](/C=C/[C@@H](O)COc2cccc(C(F)(F)F)c2)[C@H](O)C[C@@H]1O [travoprost acid]
[2]; single treatment
  elongation in the hair shaft compared with carrier DMSO: greater than that obtained with the carrier DMSO
  time at which the effect on elongation appears: from the third day of treatment
